PubChem BioAssay AID1259407 (Chemical Carcinogenesis Research Information System (CCRIS), 2018)
Calls of active or inactive are those of the source. How the calls were made is not given here.

Tested on: CCRIS mutagenicity, Ames/micronucleus/aberration tests
Test: CCRIS mutagenicity studies

CCCl
mutagenic call (Test System: AMES SALMONELLA TYPHIMURIUM, Strain/Indicator: TA98, Metabolic Activation: NONE, Method: DESICCATOR): inactive; negative | mutagenic call (Test System: AMES SALMONELLA TYPHIMURIUM, Strain/Indicator: TA98, Metabolic Activation: NONE, Method: GAS EXPOSURE): inactive; negative | mutagenic call (Test System: AMES SALMONELLA TYPHIMURIUM, Strain/Indicator: TA98, Metabolic Activation: RAT LIVER S-9, PHENOBARBITAL AND BETA-NAPHTHOFLAVONE, Method: GAS EXPOSURE): inactive; negative | mutagenic call (Test System: AMES SALMONELLA TYPHIMURIUM, Strain/Indicator: TA98, Metabolic Activation: RAT, LIVER, S-9, AROCLOR 1254 (30%), Method: DESICCATOR): inactive; negative | mutagenic call (Test System: AMES SALMONELLA TYPHIMURIUM, Strain/Indicator: TA98, Metabolic Activation: RAT, LIVER, S-9, PHENOBARBITAL AND 5,6-BENZOFLAVONE, Method: GAS EXPOSURE): inactive; negative | mutagenic call (Test System: AMES SALMONELLA TYPHIMURIUM, Strain/Indicator: TA100, Metabolic Activation: HAMSTER, LIVER, S-9, AROCLOR 1254 (30%), Method: DESICCATOR): inactive; negative | mutagenic call (Test System: AMES SALMONELLA TYPHIMURIUM, Strain/Indicator: TA100, Metabolic Activation: NONE, Method: DESICCATOR): inactive; negative | mutagenic call (Test System: AMES SALMONELLA TYPHIMURIUM, Strain/Indicator: TA100, Metabolic Activation: NONE, Method: GAS EXPOSURE): active; positive | mutagenic call (Test System: AMES SALMONELLA TYPHIMURIUM, Strain/Indicator: TA100, Metabolic Activation: RAT LIVER S-9, PHENOBARBITAL AND BETA-NAPHTHOFLAVONE, Method: GAS EXPOSURE): active; positive | mutagenic call (Test System: AMES SALMONELLA TYPHIMURIUM, Strain/Indicator: TA100, Metabolic Activation: RAT, LIVER, S-9, PCB, Method: GAS EXPOSURE): inactive; negative | mutagenic call (Test System: AMES SALMONELLA TYPHIMURIUM, Strain/Indicator: TA100, Metabolic Activation: RAT, LIVER, S-9, PHENOBARBITAL AND 5,6-BENZOFLAVONE, Method: GAS EXPOSURE): active; positive | mutagenic call (Test System: AMES SALMONELLA TYPHIMURIUM, Strain/Indicator: TA1535, Metabolic Activation: HAMSTER, LIVER, S-9, AROCLOR 1254 (30%), Method: DESICCATOR): active; positive | mutagenic call (Test System: AMES SALMONELLA TYPHIMURIUM, Strain/Indicator: TA1535, Metabolic Activation: NONE, Method: DESICCATOR): active; positive | mutagenic call (Test System: AMES SALMONELLA TYPHIMURIUM, Strain/Indicator: TA1535, Metabolic Activation: NONE, Method: GAS EXPOSURE): active; positive | mutagenic call (Test System: AMES SALMONELLA TYPHIMURIUM, Strain/Indicator: TA1535, Metabolic Activation: RAT LIVER S-9, PHENOBARBITAL AND BETA-NAPHTHOFLAVONE, Method: GAS EXPOSURE): active; positive | mutagenic call (Test System: AMES SALMONELLA TYPHIMURIUM, Strain/Indicator: TA1535, Metabolic Activation: RAT, LIVER, S-9, AROCLOR 1254 (30%), Method: DESICCATOR): active; positive | mutagenic call (Test System: AMES SALMONELLA TYPHIMURIUM, Strain/Indicator: TA1535, Metabolic Activation: RAT, LIVER, S-9, PHENOBARBITAL AND 5,6-BENZOFLAVONE, Method: GAS EXPOSURE): active; positive | mutagenic call (Test System: AMES SALMONELLA TYPHIMURIUM, Strain/Indicator: TA1537, Metabolic Activation: NONE, Method: GAS EXPOSURE): inactive; negative | mutagenic call (Test System: AMES SALMONELLA TYPHIMURIUM, Strain/Indicator: TA1537, Metabolic Activation: RAT LIVER S-9, PHENOBARBITAL AND BETA-NAPHTHOFLAVONE, Method: GAS EXPOSURE): inactive; negative | mutagenic call (Test System: AMES SALMONELLA TYPHIMURIUM, Strain/Indicator: TA1537, Metabolic Activation: RAT, LIVER, S-9, PHENOBARBITAL AND 5,6-BENZOFLAVONE, Method: GAS EXPOSURE): inactive; negative | mutagenic call (Test System: CHINESE HAMSTER OVARY, Strain/Indicator: CHO-K1 (HPRT)/6-THIOGUANINE, Metabolic Activation: NONE): active; positive | mutagenic call (Test System: CHINESE HAMSTER OVARY, Strain/Indicator: CHO-K1 (HPRT)/6-THIOGUANINE, Metabolic Activation: RAT, LIVER, S-9, AROCLOR 1254): active; positive | mutagenic call (Test System: E. COLI, Strain/Indicator: WP2 UVRA (PKM101), Metabolic Activation: RAT, LIVER, S-9, PCB, Method: GAS EXPOSURE): inactive; negative | mutagenic call (Test System: E. COLI, Strain/Indicator: WP2 UVRA, Metabolic Activation: NONE, Method: GAS EXPOSURE): active; positive | mutagenic call (Test System: E. COLI, Strain/Indicator: WP2 UVRA, Metabolic Activation: RAT, LIVER, S-9, PCB, Method: GAS EXPOSURE): inactive; negative | mutagenic call (Test System: E. COLI, Strain/Indicator: WP2 UVRA, Metabolic Activation: RAT, LIVER, S-9, PHENOBARBITAL AND 5,6-BENZOFLAVONE, Method: GAS EXPOSURE): active; positive | mutagenic call (Test System: E.COLI, Strain/Indicator: WP2UVRA, Metabolic Activation: NONE, Method: GAS EXPOSURE): active; positive | mutagenic call (Test System: E.COLI, Strain/Indicator: WP2UVRA, Metabolic Activation: RAT LIVER S-9, PHENOBARBITAL AND BETA-NAPHTHOFLAVONE, Method: GAS EXPOSURE): active; positive | mutagenic call (Test System: UDS MOUSE HEPATOCYTES, Strain/Indicator: THY INCORP, Metabolic Activation: NONE, Method: IN VIVO-IN VITRO): inactive; negative

Cn1c2ccccc2c(=O)c2c(O)cc3c(c21)CC(C(C)(O)CCl)O3 (stereo not drawn)
mutagenic call (Test System: AMES SALMONELLA TYPHIMURIUM, Strain/Indicator: TA98, Metabolic Activation: NONE, Method: STANDARD PLATE): active; positive | mutagenic call (Test System: AMES SALMONELLA TYPHIMURIUM, Strain/Indicator: TA98, Metabolic Activation: RAT, LIVER, S-9, PHENOBARBITAL, Method: STANDARD PLATE): active; positive | mutagenic call (Test System: AMES SALMONELLA TYPHIMURIUM, Strain/Indicator: TA100, Metabolic Activation: NONE, Method: STANDARD PLATE): active; positive | mutagenic call (Test System: AMES SALMONELLA TYPHIMURIUM, Strain/Indicator: TA100, Metabolic Activation: RAT, LIVER, S-9, PHENOBARBITAL, Method: STANDARD PLATE): active; positive | mutagenic call (Test System: AMES SALMONELLA TYPHIMURIUM, Strain/Indicator: TA1535, Metabolic Activation: NONE, Method: STANDARD PLATE): inactive; negative | mutagenic call (Test System: AMES SALMONELLA TYPHIMURIUM, Strain/Indicator: TA1535, Metabolic Activation: RAT, LIVER, S-9, PHENOBARBITAL, Method: STANDARD PLATE): inactive; negative | mutagenic call (Test System: AMES SALMONELLA TYPHIMURIUM, Strain/Indicator: TA1538, Metabolic Activation: NONE, Method: STANDARD PLATE): active; positive | mutagenic call (Test System: AMES SALMONELLA TYPHIMURIUM, Strain/Indicator: TA1538, Metabolic Activation: RAT, LIVER, S-9, PHENOBARBITAL, Method: STANDARD PLATE): active; positive | mutagenic call (Test System: AMES SALMONELLA TYPHIMURIUM, Strain/Indicator: TA1978, Metabolic Activation: NONE, Method: STANDARD PLATE): active; positive | mutagenic call (Test System: AMES SALMONELLA TYPHIMURIUM, Strain/Indicator: TA1978, Metabolic Activation: RAT, LIVER, S-9, PHENOBARBITAL, Method: STANDARD PLATE): inactive; negative

Clc1nncc2cnccc12
mutagenic call (Test System: AMES SALMONELLA TYPHIMURIUM, Strain/Indicator: TA98, Metabolic Activation: NONE, Method: PREINCUBATION): inactive; negative | mutagenic call (Test System: AMES SALMONELLA TYPHIMURIUM, Strain/Indicator: TA98, Metabolic Activation: RAT, LIVER, S-9, PCB, Method: PREINCUBATION): inactive; negative | mutagenic call (Test System: AMES SALMONELLA TYPHIMURIUM, Strain/Indicator: TA100, Metabolic Activation: NONE, Method: PREINCUBATION): inactive; negative | mutagenic call (Test System: AMES SALMONELLA TYPHIMURIUM, Strain/Indicator: TA100, Metabolic Activation: RAT, LIVER, S-9, PCB, Method: PREINCUBATION): inactive; negative
